The values below come from US7485632B2, “Cephalosporins” (Nabriva Therapeutics Forschungs GmbH, priority 2002, dated 2009).

Holding throughout (format): cell-based
Test [1] has as its system Klebsiella. Kind of test: Agar Dilution Test (NCCLS), MIC. As to conditions: against Klebsiella. Background: In agar dilution the substance is mixed into plates at graded concentrations.
In test [2] the test system is Staphylococcus aureus (MSSA). The test is described as follows: Agar Dilution Test (NCCLS), MIC. The settings on record: against Staphylococcus aureus (MSSA).
Test [3] concerns Streptococcus pneumoniae. The test is described as follows: Agar Dilution Test (NCCLS), MIC. The settings on record: against Streptococcus pneumoniae.
Test [4] concerns Pseudomonas aeruginosa. The test is described as follows: Antibacterial activity.
Test [5] deals with Klebsiella pneumoniae. Kind of test: Agar Dilution Test (NCCLS), MIC. The settings on record: against Klebsiella pneumoniae.

In general, MIC refers to the lowest concentration found to suppress growth.

Converted amounts (≈) assume the structure as drawn.

With `CN(/N=C/C1=C(C(=O)O)N2C(=O)[C@@H](NC(=O)/C(=N\OCF)c3nsc(N)n3)C2SC1)C(=N)N[C@H]1CC[C@H](N)CC1` (stereo partly drawn) [Example 1, 3-{(E)[[1-trans-(4-Amino-cyclohexylamino)-iminomethyl]-methylhydrazono]methyl}-7-{[(5-amino-1,2,4-thiadiazol-3-yl)-(Z)-(fluoromethoxyimino)-acetyl]amino}-3-cephem-4-carboxylic acid], the minimal inhibitory concentration (MIC) in test [1] was 0.0125 to 0.8 µg/mL (≈ 0.0209 to 1.34 µM); in test [2], 0.05 to 0.2 µg/mL (≈ 0.0837 to 0.335 µM); in test [3] it was approximately 0.0125 µg/mL (≈ 0.0209 µM); in test [5], approximately 0.0125 µg/mL (≈ 0.0209 µM). The “activity against Pseudomonas aeruginosa” value in test [4] is “shows activtiy”.
